Experimental data as given in patent publication US20150086490A1, “ORAL CARE COMPOSITIONS AND METHODS” (Colgate-Palmolive Company, priority 2009, published 2015).

Test system: MMP-13 gene expression
Assay: PTH stimulated MMP-13 gene expression in UMR 106-01 cells, real time quantitative RT-PCR
Assay type: cell-based, rat
Conditions: for effect on PTH stimulated MMP-13 gene expression (in words): summary of the table's results
Procedure: Parathyroid hormone (PTH) stimulates the transcription of MMP-13. The experimental method utilizes PTH to stimulate MMP-13 transcription in UMR 106-01 cells, which are cells derived from a rat osteoblastic cell line. The UMR 106-01 cell line provides useful model system for studying effects of PTH on osteoblasts in vitro. See, e.g., Qin, L. et al. Journal of Biological Chemistry, 278(22), 19723 (2003).
The UMR 106-01 cells were cultured in Eagle's minimal essential medium (EMEM) supplemented with 25 mM Hepes 7.4, 1% nonessential amino acids, 100 units/ml penicillin, 100 μg/ml streptomycin and 5% fetal bovine serum.
UMR 106-01 cells were seeded in 12-well plates and cultured for 2-3 days in cell culture media. When cells were confluent, the cell culture media was changed to 1% fetal bovine serum (not 5% fetal bovine sertn) for overnight cell starvation. The cells were preincubated with active ingredient for 15 min and then incubated with PTH (10^−8 M) for 4 hours.
Total RNA from UMR 106-01 cells stimulated with or without PTH was isolated with TRIzol reagent. Total RNA (0.1 μg) was reverse-transcribed to cDNA with the Invitrogen Superscript kit according to the manufacturer's instructions. PCR was performed on cDNA using primers, and the sequences used are listed below. All were amplified by adding 2.5 μl of cDNA to the PCR mixture (22.5 μl) containing each primer (0.2 μM) and 12.5 μl of the Platinum SYBR Green qPCR SuperMix UDG (Invitrogen). The reactions were pre-incubated at 50° C. for 2 minutes for decontamination of dU-containing DNA by UDG, then at 95° C. for 2 minutes to inactivate UDG and activate Taq. The PCR program continued for 49 cycles of denaturation at 95° C. for 15 seconds, annealing and elongation of the primers at 60° C. for 30 seconds. Relative quantification of gene expression was determined by using the 2-delta delta CT method where fold changes in gene expression are relative to control samples. All samples were normalized to β-actin.

[1] = PTH (10^−8 M, 4 hours) + active 10 ppm (15 min preincubation)
[2] = active alone (no PTH), 10 ppm in simple solution

## CC1CCC(C(C)C)C(OC(=O)Nc2ccccc2O)C1 (centres unmarked) [Compound A, 2-isopropyl-5-methylcyclohexyl 2-hydroxyphenylcarbantate]
PTH (10^−8 M, 4 hours) + active 7 ppm (15 min preincubation)
  fold change in MMP-13 gene expression relative to the control sample, Average: 14.674 fold
Active alone (no PTH), 7 ppm in simple solution
  fold change in MMP-13 gene expression relative to the control sample, Average: 7.41 fold
  effect on PTH stimulated MMP-13 gene expression (in words): decreases the expression

## CC(=O)O[C@@H]1CC[C@@]2(C)[C@@H](CC[C@]3(C)[C@@H]2C(=O)C=C2[C@@H]4[C@@H](C)[C@H](C)CC[C@]4(C)CC[C@]23C)[C@@]1(C)C(=O)O [AKBBA, Acetyl keto β-boswellic acid]
[1]
  fold change in MMP-13 gene expression relative to the control sample, Average: 59.77 fold
[2]
  fold change in MMP-13 gene expression relative to the control sample, Average: 1.45 fold
  effect on PTH stimulated MMP-13 gene expression (in words): decreases the expression

## Oc1ccc(C=Cc2cc(O)cc(O)c2)cc1 [Resveratrol, 3,5,4′-trihydroxystilbene]
PTH (10^−8 M, 4 hours) + active 0.1 ppm (15 min preincubation)
  fold change in MMP-13 gene expression relative to the control sample, Average: 46.02 fold
PTH (10^−8 M, 4 hours) + active 1 ppm (15 min preincubation)
  fold change in MMP-13 gene expression relative to the control sample, Average: 19.97 fold
[1]
  fold change in MMP-13 gene expression relative to the control sample, Average: 1.86 fold
PTH (10^−8 M, 4 hours) + active 50 ppm (15 min preincubation)
  fold change in MMP-13 gene expression relative to the control sample, Average: 0.91 fold
PTH (10^−8 M, 4 hours) + active 100 ppm (15 min preincubation)
  fold change in MMP-13 gene expression relative to the control sample, Average: 0.65 fold
Active alone (no PTH), 0.1 ppm in simple solution
  fold change in MMP-13 gene expression relative to the control sample, Average: 1.07 fold
Active alone (no PTH), 1 ppm in simple solution
  fold change in MMP-13 gene expression relative to the control sample, Average: 0.71 fold
[2]
  fold change in MMP-13 gene expression relative to the control sample, Average: 0.65 fold
Active alone (no PTH), 50 ppm in simple solution
  fold change in MMP-13 gene expression relative to the control sample, Average: 0.38 fold
Active alone (no PTH), 100 ppm in simple solution
  fold change in MMP-13 gene expression relative to the control sample, Average: 1.09 fold
  effect on PTH stimulated MMP-13 gene expression (in words): decreases the expression

## CC(=O)Nc1ccc(OC(=O)OC2CC(C)CCC2C(C)C)cc1 (centres unmarked) [Compound B, 4-acetamidophenyl 2-isopropyl-5-methylcyclohexyl carbonate]
[1]
  fold change in MMP-13 gene expression relative to the control sample, Average: 49.86 fold
[2]
  fold change in MMP-13 gene expression relative to the control sample, Average: 5.78 fold
  effect on PTH stimulated MMP-13 gene expression (in words): decreases the expression
